Measurements as given in US20260224470A1, “Composition For Improving The Aesthetic Appearance Of Hair And Skin Appendages” (priority 2023, published 2026).

System: glycogen-phosphorylase (PYGL) gene expression
Assay: PYGL gene expression by qRT-PCR in Human Follicle Dermal Papilla Cells
Assay type: cell-based
Conditions: 6 μg/mL; serum-starved HFDPC, 24 h treatment; compared with positive control (starved cells), p<0.005
Method: The PromoCell® Human Follicle Dermal Papilla Cells (HFDPC) cell line was used to test the inhibitory activity on PYGL of maslinic acid and a Swertia chirata extract (dry extract on maltodextrins) alone or as a combination.
HFDPCs (DP; PromoCell GmbH, Heidelberg, Germany, batch 325Z017.1 and 322Z030.1) were grown in base culture medium (Follicle Dermal Papilla Cell Growth Medium) (PromoCell GmbH) supplemented with 4 μL/mL of bovine pituitary gland extract (Bovine Pituitary Extract), 0.04 mL/mL fetal serum, 1 ng/ml recombinant human fibroblast growth factor, 5 μg/mL recombinant human insulin (PromoCell). Cells were cultured with […] primocin (Invivogen, Toulouse, France, #ant-pm-2) in a humidified incubator with 5% CO2 at 37° C.
POSITIVE CONTROL: Cells treated in Follicle Dermal Papilla Cell Growth medium without serum (starved) under the same culture conditions.
NEGATIVE CONTROL: Untreated cells in Follicle Dermal Papilla Cell Growth medium under the same culture conditions.
PYGL gene expression was studied by RT-PCR.
When cells (HFDPC) reached about 80% confluence, they were detached with trypsin/EDTA and seeded at a density of 1×10^6 cells/mL into 12-well plates and incubated at 37° C., 5% CO2 (24 h). […]

CC1(C)CC[C@]2(C(=O)O)CC[C@]3(C)C(=CC[C@@H]4[C@@]5(C)C[C@@H](O)[C@H](O)C(C)(C)[C@@H]5CC[C@]43C)[C@@H]2C1 [maslinic acid, (2α,3β)-2,3-dihydroxyolean-12-en-28-oic acid]
inhibition of PYGL gene expression: significantly inhibit (p<0.005)
